The values below come from US6211439A, “Herbicide resistance in plants” (MGI Pharma, Inc, priority 1995, dated 2001).

Test [1] has as its system line XA17 tissue. Put plainly: Plant regeneration from line XA17 callus in presence of herbicide. The test is classed as cell-based, maize. The following applies: 0.1, 0.3, and 3.0 mg per liter 214. The procedure:
Eighty to 90 mg quantities of maize callus tissue were transferred to embryo and shoot development (regeneration) media in petri plates. The media consisted of MS basal media supplemented with 0.1 mg per liter 2,4-D and 1×10^-7 M abscissic acid. 0.25% Gelrite (Kelco Co., San Diego, Calif.) was used as a solid support in place of agar. The tissue was incubated in the dark at 26° C. (approximately 300 footcandles,soft white fluorescent) on a cycle of 14 hours light, 10 hours dark. Developing plants reaching a size of 1-3 cm were then transferred to flasks or jars, containing MS media with no supplementation, for further development. When plants reached the two to three leaf stage, they were moved to pots containing vermiculite and exposed to light at 2600 footcandles. These plants were watered with 20% v/v MS media for one week and then with water until they grew stably. The plants were then transferred to soil for growth to maturity.
Traits which are selected for and expressed in undifferentiated cell cultures are not necessarily expressed in the differentiated organs and tissues of a developing plant. Therefore, it was necessary to examine plants regenerated from line XA17 callus tissue in the presence of normally inhibitory concentrations of 214. Line XA17 tissue was transferred to regeneration media containing 0.1, 0.3, and 3.0 mg per liter 214.

For test [2], the system named is Suspension culture cells. Put plainly: Protein synthesis: incorporation of radiolabeled amino acids into TCA-precipitable cell components. It is filed as cell-based, maize. The note with it: Zea mays; 1×10^-5 M 997; cells at different post-subculture intervals; cell fresh weight basis. The procedure:
Suspension culture cells were preincubated for 48 hours in the presence or absence of 1×10^-5 M 997 and then exposed for 12 hours to 75 !Ci of either ^35 S-methionine (1210 Ci/mmol, New England Nuclear, Boston, Mass.) or ^3 H-DL-leucine (55 Ci/mmol, ICN Pharmaceuticals Inc. -K and K Laboratories, Plainview, N.Y.) per 0.1 ml of cells at a cell density of 10% volume cells/volume suspension. Cells were then centrifuged 300×g, washed with cold MS culture media, and ground with a cold mortar and pestle in the presence of one volume of 6 M urea. The resulting extract was centrifuged at 12,800×g for 5 minutes. The pellet was then reextracted and, following centrifugation, the extracts were combined. Protein was precipitated by the addition of 10% w/v trichloroacetic acid (TCA). Protein was removed by centrifugation and resolubilized in 6 M urea. Incorporation of radiolabel into protein was determined by scintillation counting.

Test [3] deals with Black Mexican Sweet Corn tissue. In words: Free amino acid levels in Black Mexican Sweet Corn suspension cultures. The following applies: for activity at 10 µM / fold induction at 10 µM: Zea mays; for activity at 10 µM: After 48 hours of herbicide exposure; for fold induction at 10 µM: over a period of 48 hours, vs control cultures. It is filed as cell-based, maize. The procedure: Suspension culture cells were treated for 3.5 hours or 48 hours with 1×10^-5 M 997. Cells were removed from suspension by filtration and 1 gram fresh weight quantities were ground with sand with a mortar and pestle in 1 ml 5% TCA. Four ml of 5% TCA were added and the extract centrifuged at 10,000×g for 10 minutes. The pellet was reextracted and the supernatants combined and subjected to cation exchange chromatography. The samples were applied to Bond Elut SCX columns (Analytichem International Inc., Harbor City, Calif.) which had been equilibrated with 5% TCA. Following sample application, the columns were washed with 5 ml distilled, deionized water, and the amino acids were eluted with 2 ml aliquots of 5% v/v triethylamine. The aliquots were combined (6 ml), lyophilized, and subjected to amino acid analysis with a Kontron Liquemat III amino acid analyzer (Hesber, Middlesex TW5 OQU, England).

The test system of test [4] is AHAS activity from line QJ22. Put plainly: AHAS activity assay, line QJ22. The following applies: 3×10^-6 to 3×10^-4 M 997. The test is classed as biochemical, maize. The method, then:
Assays were conducted as a modification of the procedure of Smith et al. (1979, Molec. Gen. Genet. 169: 299-314). Plant cell culture material was ground with sand in a cold mortar and pestle in an equal quantity (w/v) of cell disruption media containing 0.05 M potassium phosphate (pH 7.0), 0.1 mM MgSO4, and 0.5 mM dithiothreitol. The preparation was centrifuged at 11,000×g for 20 minutes and the supernatant assayed for AHAS activity. Assays were conducted in 1 ml volumes containing 0.05 M potassium phosphate (pH 8.0), 40 mM pyruvate, 5 mM MgCl2, 0.1 mM thiamine pyrophosphate, 0.2 ml cell extract, and various concentrations of the herbicide of interest. The reaction mixtures were incubated at 30° C. for 75 minutes and the reaction terminated with the addition of 0.1 ml of 50% (v/v) H2 SO4. Following further incubation at 40° C. for 20 minutes, the acetoin formed from acetolactate by acidification was quantitated using the method of Westerfield (1945, J. Biol. Chem. 161: 495). To 0.2 ml of reaction mixture, 0.8 ml of water, 0.5 ml of 0.5% (w/v) creatine, and 0.5 ml of 5% (w/v) naphthol in 10% (w/v) NaOH was added. After mixing, solutions were incubated at room temperature for one hour. The development of pink color was quantitated by measuring light absorbance at 530 nm. […]

[5] abbreviates: 1 × 10^-5 M 997, 3.5 hr., Estimated.

Read-outs that look alike come from different tables or passages of the source.

As to `CC(C)C1(C)NC(c2nc3ccccc3cc2C(=O)O)=NC1=O` (stereo not drawn) [compound 214, 2-(5-isopropyl-5-methyl-4-oxo-2-imidazolin-2-yl)3-quinolinecarboxylic acid], in test [1], the “plantlet development on regeneration media” value was “Normally developing plantlets were obtained at all three herbicide levels”.
For `CC(C)C1(C)NC(c2ncccc2C(=O)O)=NC1=O` (stereo not drawn) [compound 997, 2-(5-isopropyl-5-methyl-4-oxo-2-imidazolin-2-yl)nicotinic acid], the inhibition (in general, the drop in the measured response relative to a control, in per cent) at 10 µM in test [2] fell in the range of 50 to 77%. In addition, in test [3] (1 × 10^-5 M 997, 3.5 hr.), the Free asp level was 175 nmol per g fresh weight tissue, the “Free cystine (Oxidized cysteine) level” value is listed as 103 nmol per g fresh weight tissue, the Free glu level is on record as 360 nmol per g fresh weight tissue and the Free gly level is reported as 98 nmol per g fresh weight tissue. In addition, in test [3] (1 × 10^-5 M 997, 3.5 hr.), the Free his level was 184 nmol per g fresh weight tissue, the Free ile level is 120 nmol per g fresh weight tissue, the Free leu level is on record as 120 nmol per g fresh weight tissue and the Free lys level is 212 nmol per g fresh weight tissue. For the same compound, in test [3] (1 × 10^-5 M 997, 3.5 hr.), the Free met level is given as 100 nmol per g fresh weight tissue, the Free phe level was 151 nmol per g fresh weight tissue, the Free ser level is recorded as 540 nmol per g fresh weight tissue and the Free thr level is reported as 89 nmol per g fresh weight tissue. Moreover, in test [3] (1 × 10^-5 M 997, 3.5 hr.), the Free tyr level is on record as 112 nmol per g fresh weight tissue and the Free val level is on record as 355 nmol per g fresh weight tissue. Further, in test [3] (setting [5]), the Free ala level is on record as 600 nmol per g fresh weight tissue, the Free arg level was 60 nmol per g fresh weight tissue and the Free trp level is reported as 30 nmol per g fresh weight tissue. Further, in test [3] (1 × 10^-5 M 997, 48 hr.), the Free ala level was 455 nmol per g fresh weight tissue, the Free arg level was 55 nmol per g fresh weight tissue, the Free asp level is recorded as 100 nmol per g fresh weight tissue and the “Free cystine (Oxidized cysteine) level” value is reported as 435 nmol per g fresh weight tissue. In test [3] (1 × 10^-5 M 997, 48 hr.), the Free glu level is listed as 175 nmol per g fresh weight tissue, the Free gly level is listed as 60 nmol per g fresh weight tissue, the Free his level is 310 nmol per g fresh weight tissue and the Free ile level is 38 nmol per g fresh weight tissue. Moreover, in test [3] (1 × 10^-5 M 997, 48 hr.), the Free leu level is 16 nmol per g fresh weight tissue, the Free lys level is reported as 240 nmol per g fresh weight tissue, the Free met level was 405 nmol per g fresh weight tissue and the Free phe level is on record as 195 nmol per g fresh weight tissue. In test [3] (1 × 10^-5 M 997, 48 hr.), the Free ser level is recorded as 1160 nmol per g fresh weight tissue, the Free trp level is 30 nmol per g fresh weight tissue, the Free tyr level is 130 nmol per g fresh weight tissue and the Free val level is recorded as 48 nmol per g fresh weight tissue. Moreover, the activity at 10 µM in test [3] (read-out: free isoleucine level relative to untreated cell cultures) was 31%. For the same compound, the activity at 10 µM in test [3] (read-out: free leucine level relative to untreated cell cultures) stood at 8%. Also, the activity at 10 µM in test [3] (read-out: free valine level relative to untreated cell cultures) amounted to 12%. For the same compound, the fold induction at 10 µM in test [3] (read-out: increase of free cysteine during herbicide exposure) stood at 24. Also, in test [3] (read-out: increase of free methionine during herbicide exposure), the fold induction at 10 µM worked out at 8. Also, the fold induction at 10 µM in test [3] (read-out: increase of free serine during herbicide exposure) was 3. Also, the “tolerance of AHAS activity vs AHAS from control cultures” value in test [4] is recorded as “more tolerant”.
